We go through one molecule from patent publication US20140039004A1, “METHOD OF TREATING OF GASTROESOPHAGEAL REFLUX DISEASE” (ONO PHARMACEUTICAL CO., LTD., priority 2012, published 2014).

SMILES strings stand for the structures. Where two headings read alike, the source gives them in different places.

Common to all, as to type: in vivo, Cynomolgus monkeys
Series [1] relates to hypersensitivity in the esophagus evoked by hydrochloric acid perfusion. Put plainly: Hypersensitivity model evoked by acid (nociceptive threshold to esophageal electrical stimulation). As to the method: Cynomolgus monkeys (aged 4 to 6 years, female, Japan Laboratory Animals, Inc., no history of administration) were acclimated to a monkey chair for 2 days or more, and were fasted for 12 hours or more. After that, on the day of experiment, the monkeys were immobilized in the monkey chair after the measurement of body weight, and were acclimated for another one hour or more. An electrostimulation catheter was inserted from a nostril, and electrical stimulation was applied at the position approximately 10 cm above the cardiac part of stomach (the upper esophagus). […] This was carried out three times every 2 to 3 minutes at each evaluation time point, and the average value was used as a nociceptive threshold at each time point. Saline or hydrochloric acid (1.5 N) was perfused from the position approximately 3 cm above the cardiac region (the lower esophagus) to the stomach at an injection rate of 160 mL/h for 30 minutes. The nociceptive thresholds were measured before and after perfusion of saline in the esophagus, before perfusion of hydrochloric acid in the esophagus and at 0, 30, 60, 90 and 120 minutes after perfusion of hydrochloric acid in the esophagus. The vehicle or Compound A (0.01 and 0.1 mg/kg, respectively) was subcutaneously administered 30 minutes before the start of the perfusion of hydrochloric acid. […] The endpoint was assessed by comparing the nociceptive thresholds before and after perfusion of hydrochloric acid, the nociceptive threshold of the vehicle-administered group at each time point and the nociceptive threshold of the Compound A-administered group at each time point. […]

Series [2] deals with hypersensitivity in the esophagus evoked by continuous electrical stimulation. Description: Hypersensitivity model evoked by electrical stimulation (nociceptive threshold). As to the method: Cynomolgus monkeys (aged 4 to 6 years, female, Japan Laboratory Animals, Inc., no history of administration) were acclimated to a monkey chair for 2 days or more, and were fasted for 12 hours or more. After that, on the day of experiment, the monkeys were immobilized in the monkey chair after the measurement of body weight, and were acclimated for another one hour or more. An electrostimulation catheter was inserted from a nostril, and electrical stimulation was applied at the position approximately 10 cm above the cardiac part of stomach (the upper esophagus). […] This was carried out three times every 2 to 3 minutes at each evaluation time point, and the average value was used as a nociceptive behavior threshold at each time point. Hypersensitivity was induced by continuous electrical stimulation to the position approximately 3 cm above the cardiac region (the lower esophagus). That is, an electrostimulation catheter was inserted from a nostril, and electrical stimulation was applied at the position of the lower esophagus for 30 minutes. […] The endpoint was assessed by comparing the nociceptive thresholds before and after continuous electrical stimulation, the nociceptive threshold of the vehicle-administered group at each time point and the nociceptive threshold of the Compound A-administered group at each time point. […]

Series [3] deals with transient lower esophageal sphincter relaxation. Put plainly: Action on transient lower esophageal sphincter relaxation (TLESR) (2). The conditions noted are these: 0.01 and 0.1 mg/kg s.c. 30 min before high-fat diet and air injection; measured for 45 minutes; vs vehicle-administered group; FIG. 3. As for the experimental part: Cynomolgus monkeys (aged 4 to 6 years, female, Japan Laboratory Animals, Inc., no history of administration) were acclimated to a monkey chair for 2 days or more, and were fasted for 12 hours or more. After that, on the day of experiment, the monkeys were immobilized in the monkey chair after the measurement of body weight, and was acclimated for another one hour or more. A high-fat diet/air injection catheter and a sensor catheter for measuring pressure were inserted from a nostril and the oral cavity. A high-fat diet was injected into the stomach so that the final volume would be 80 mL, and air was then injected up to a pressure in the stomach of 20 mmHg, and maintained. The pressure in the esophagus was measured by a sensor catheter in the lower esophageal sphincter region and the positions approximately 2, 3 and 6 cm above the lower esophageal sphincter. […] The frequency of TLESR was measured for 45 minutes from the injection of high-fat diet to the end of ventilation. Here, TLESR was measured considering that the relaxation response of the lower esophageal sphincter region was longer by […] and was not elicited by peristaltic motion occurring in the esophagus, and the rate of reduction of pressure was greater than […], and measured. […]

The nature of series [4]: Evaluation of penetration into the center (plasma, CSF and tissue concentration by LC/MS/MS). To be noted: female, cynomolgus monkey, subcutaneous, 0.1 mg/kg s.c., 180 minutes after administration; for concentration at 180 min: n=3. As for the experimental part: Cynomolgus monkeys (aged 4 to 6 years, female, Japan Laboratory Animals, Inc., no history of administration) were immobilized in a monkey chair, and Compound A was subcutaneously administered thereto (0.1 mg/kg), followed by collecting blood at 180 minutes after administration. The blood samples were centrifuged at 10000 g at 4° C. for 3 minutes to collect plasma. Next, the cerebrospinal fluid was collected under anesthesia by intravenous administration of pentobarbital sodium, and the lower esophagus, the upper esophagus, the dorsal root ganglion, the spinal cord and the brain stem were then collected. Furthermore, the dorsal root ganglion and the spinal cord were collected from the first to sixth thoracic spinal cord, which controls esophageal nerves. To the collected tissue, 4 times the amount of saline per wet weight of each tissue was added, followed by homogenization using Physcotron to obtain each tissue homogenate. The number of animals was 3.
The concentration of Compound A in each tissue was measured by a LC/MS/MS method.
To the samples for 50 μL of a calibration curve and test samples of Compound A, 1 mL of ultrapure water and an internal standard substance were added under ice cold conditions, followed by stirring. To a solid phase extraction cartridge (OAS1S MAX 30 mg/1 cc, Waters Corporation) which had been conditioned in advance, each sample was loaded and washing was carried out, followed by centrifugation, and a cleaning liquid was discharged from the cartridge for drying. Further, elution was carried out with 1 mL of an acetonitrile/acetic acid mixed liquid (49:1), and the eluate was concentrated and dried under a current of nitrogen (40° C. or less). The residue was redissolved in 200 μL of a methanol/0.1 vol % acetic acid solution (70: 30) to obtain a sample for the measurement of LC/MS/MS.
The analysis by LC/MS/MS was carried out under the following conditions.
Measuring device: Nanospace 3033 (Shiseido Co., Ltd.) Analysis column: SunFire C18 3.5 μm (2.1 mm i.d.×100 mm, 3.5 μm, Waters Corporation) Mobile phase: Acetonitrile/0.1 vol % acetic acid solution (70: 30) Cleaning liquid for cleaning port (one component): 2-propanol Cleaning liquid for cleaning port (two components): Mobile phase [acetonitrile/0.1 vol % acetic acid solution (70: 30)] Flow rate: 0.2 mL/min Column temperature: 35° C. Sample temperature: 4° C. Analysis time: 13 minutes
Measuring device: API4000 (AB SCIEX) Ion source: ESI Scan type: MRM
Using the peak area ratio (standard substance/internal standard substance) obtained by the measurement of a sample for a calibration curve, the calibration curve (y=aX+b, Y: Peak area ratio, X: Concentration) was made from the single regression line by the least squares method, and the peak area ratios of test samples were applied to the calibration curve to calculate a measured value.

With `Cc1cc(C(=O)O)ccc1COc1cc2c(cc1N(CC(C)C)S(=O)(=O)c1nccs1)CCC2` [Compound A, 4-[({6-[isobutyl(1,3-thiazol-2-ylsulfonyl)amino]-2,3-dihydro-1H-inden-5-yl}oxy)methyl]-3-methyl benzoic acid], in series [1] (0.1 mg/kg s.c. 30 min before HCl perfusion, FIG. 1), the “nociceptive threshold after hydrochloric acid perfusion” value is given as “suppressed to a normal level”. The “decrease in nociceptive threshold after hydrochloric acid perfusion” value in series [1] (Compound A 0.01 and 0.1 mg/kg s.c. 30 min before HCl (1.5 N) perfusion, vs control group, FIG. 1) is listed as “dose-dependently suppressed”. The “duration of suppressive action after hydrochloric acid perfusion” value in series [1] (Compound A-administered groups, s.c., time after end of HCl perfusion) is at least 120 min. In series [2] (0.1 mg/kg s.c. 30 min before 30 min electrical stimulation of lower esophagus, FIG. 2), the “decrease in nociceptive threshold after continuous electrical stimulation” value is “suppressed to a normal level”. The “duration of suppressive action after continuous electrical stimulation” value in series [2] (0.1 mg/kg s.c., time after end of continuous electrical stimulation) was at least 120 min. In series [3], the “frequency of TLESR” value is recorded as “dose-dependently decreased”. Moreover, the Kp at 180 min in series [4] (brain stem / plasma, read-out: percentage to the concentration in plasma, brain stem tissue) came to 0.057; in series [4] (cerebrospinal fluid / plasma, read-out: percentage to the concentration in plasma, cerebrospinal fluid), 0.019; in series [4] (dorsal root ganglion / plasma, read-out: percentage to the concentration in plasma, dorsal root ganglion), 0.163; in series [4] (lower esophagus / plasma, read-out: percentage to the concentration in plasma, lower esophagus), 0.067; in series [4] (spinal cord / plasma, read-out: percentage to the concentration in plasma, spinal cord), 0.051; in series [4] (upper esophagus / plasma, read-out: percentage to the concentration in plasma, upper esophagus), 0.073. Besides, the concentration at 180 min is 0.22 ng/mL in series [4] (brain stem, tissue homogenate, read-out: average concentration in brain stem tissue); 0.07 ng/mL in series [4] (cerebrospinal fluid, read-out: average concentration in cerebrospinal fluid); 0.62 ng/mL in series [4] (dorsal root ganglion, tissue homogenate, read-out: average concentration in dorsal root ganglion); 0.25 ng/mL in series [4] (lower esophagus, tissue homogenate, read-out: average concentration in lower esophagus); 3.79 ng/mL in series [4] (plasma, read-out: average concentration in plasma); 0.19 ng/mL in series [4] (spinal cord, tissue homogenate, read-out: average concentration in spinal cord). Further, in series [4] (upper esophagus, tissue homogenate, read-out: average concentration in upper esophagus), the concentration at 180 min is 0.28 ng/mL.
